Source: the NIST ThermoML archive (doi:10.1021/je400835u)
Numbers after ± are expanded uncertainties.

Test: xn = mol fraction of the nth substance listed
Conditions: 100 kPa, Liquid; for viscosity: Falling or rolling sphere viscometry; for mass density: Vibrating tube method

CCCCC1CCCCC1 [butylcyclohexane] + CCCCCCCCCCCCCC
Conditions | mass density, 293.15 K [kg/m3] | mass density, 298.15 K [kg/m3] | mass density, 303.15 K [kg/m3] | mass density, 308.15 K [kg/m3] | mass density, 313.15 K [kg/m3] | viscosity, 293.15 K [mPa·s] | viscosity, 298.15 K [mPa·s] | viscosity, 303.15 K [mPa·s] | viscosity, 308.15 K [mPa·s] | viscosity, 313.15 K [mPa·s]
x1 = 0.0516 | 764.33 ± 0.15 | 760.8 ± 0.15 | 757.26 ± 0.15 | 753.73 ± 0.16 | 750.2 ± 0.16 | 2.28 ± 0.019 | 2.052 ± 0.018 | 1.86 ± 0.017 | 1.694 ± 0.016 | 1.553 ± 0.015
x1 = 0.1 | 765.53 ± 0.15 | 762 ± 0.15 | 758.46 ± 0.15 | 754.92 ± 0.15 | 751.38 ± 0.16 | 2.234 ± 0.019 | 2.011 ± 0.018 | 1.823 ± 0.016 | 1.662 ± 0.016 | 1.523 ± 0.015
x1 = 0.2001 | 768.14 ± 0.15 | 764.6 ± 0.15 | 761.06 ± 0.15 | 757.51 ± 0.15 | 753.96 ± 0.16 | 2.135 ± 0.018 | 1.924 ± 0.017 | 1.746 ± 0.016 | 1.593 ± 0.015 | 1.463 ± 0.014
x1 = 0.2988 | 770.93 ± 0.15 | 767.38 ± 0.15 | 763.83 ± 0.15 | 760.27 ± 0.15 | 756.69 ± 0.16 | 2.037 ± 0.018 | 1.838 ± 0.017 | 1.67 ± 0.016 | 1.526 ± 0.015 | 1.401 ± 0.014
x1 = 0.4001 | 774.02 ± 0.15 | 770.46 ± 0.15 | 766.89 ± 0.15 | 763.31 ± 0.15 | 759.72 ± 0.16 | 1.934 ± 0.017 | 1.749 ± 0.016 | 1.592 ± 0.015 | 1.457 ± 0.014 | 1.341 ± 0.014
x1 = 0.498 | 777.26 ± 0.15 | 773.68 ± 0.15 | 770.08 ± 0.15 | 766.49 ± 0.15 | 762.88 ± 0.15 | 1.834 ± 0.017 | 1.662 ± 0.016 | 1.517 ± 0.015 | 1.391 ± 0.014 | 1.282 ± 0.014
x1 = 0.6006 | 780.95 ± 0.15 | 777.36 ± 0.15 | 773.74 ± 0.15 | 770.12 ± 0.15 | 766.49 ± 0.15 | 1.728 ± 0.016 | 1.571 ± 0.015 | 1.436 ± 0.014 | 1.32 ± 0.014 | 1.218 ± 0.013
x1 = 0.7005 | 784.9 ± 0.15 | 781.27 ± 0.15 | 777.63 ± 0.15 | 773.98 ± 0.15 | 770.33 ± 0.15 | 1.625 ± 0.015 | 1.481 ± 0.015 | 1.358 ± 0.014 | 1.25 ± 0.013 | 1.155 ± 0.013
x1 = 0.7999 | 789.23 ± 0.15 | 785.57 ± 0.15 | 781.9 ± 0.15 | 778.21 ± 0.15 | 774.53 ± 0.15 | 1.521 ± 0.015 | 1.391 ± 0.014 | 1.279 ± 0.014 | 1.18 ± 0.013 | 1.092 ± 0.013
x1 = 0.9002 | 794.07 ± 0.15 | 790.38 ± 0.15 | 786.66 ± 0.15 | 782.94 ± 0.15 | 779.22 ± 0.15 | 1.416 ± 0.014 | 1.299 ± 0.014 | 1.199 ± 0.013 | 1.109 ± 0.013 | 1.029 ± 0.013
x1 = 0.95 | 796.66 ± 0.15 | 792.94 ± 0.15 | 789.21 ± 0.15 | 785.48 ± 0.15 | 781.73 ± 0.15 | 1.363 ± 0.014 | 1.254 ± 0.014 | 1.159 ± 0.013 | 1.073 ± 0.013 | 0.998 ± 0.012
x1 = 1 | 799.44 ± 0.15 | 795.7 ± 0.15 | 791.95 ± 0.15 | 788.19 ± 0.15 | 784.41 ± 0.15 | 1.296 ± 0.014 | 1.196 ± 0.013 | 1.107 ± 0.013 | 1.027 ± 0.013 | 0.958 ± 0.012
